“Also recorded” adds a separate entry of the source.
How the values were obtained:
[1] = test system: control and GDC-0449-resistant MB allografts; assay: Tumor growth of control and GDC-0449-resistant MB allografts, PI3K inhibitor study; assay type: in vivo, mouse; conditions: GDC-0941 150 mg kg−1 once daily, oral, SG102, SG152, SG274
Description: (§1) Drug treatment of animals with MB allografts. Tumor-hearing animals were generated via serial subcutaneous propagation of murine Ptch+/−; p53−/− MB tumor lines (Wetmore C. et al. (2001) Cancer Res. 61:513-516). Subcutaneous tumors 1500-2000 mm3 were excised from donor mice under aseptic conditions, minced in High Glucose DMEM by repeated slicing and chopping with two #10 scalpels and passed through a cell dissociation sieve (Sigma, CD1-1KT). The resulting single cell suspension was washed twice in High Glucose DMEM and filtered through a 70 μm nylon cell strainer (BD Falcon) before counting in a Vi-CELL cell viability analyzer (Beckman Coulter). Approximately 2.5-4×10^6 live cells in a 100 μl volume were injected subcutaneously into the right lateral thorax of 7 to 10-week-old female CD-1 nude mice (CRL). Tumor dimensions were measured with Ultra Cal1 IV calipers (Fred V. Fowler Company Inc., Newton, Mass.) and tumor volume was calculated using the formula v=0.5×a×b2, where a and b are the […] perpendicular tumor diameters, respectively. When tumors reached 125-350 mm^3 in volume, animals were separated into treatment groups with similarly sized tumors and drug administration was initiated. […]

[2] = test system: pAKT and pS6 (PI3K pathway); assay: Immunoblot of activated AKT and S6 in MB allograft tumors; assay type: in vivo, mouse; conditions: 6-hour treatment with GDC-0941
Procedure: Immunoblotting. Frozen tumor samples were lysed in M-PER Mammalian Protein Extraction Reagent (Pierce) containing protease and phosphatase inhibitors. Lysates were separated on 4-12% Bis-Tris gels and proteins were transferred onto PVDF membranes with an iBlot (Invitrogen). Blots were blocked and incubated overnight at 4° C. with 5% milk containing one of the following primary antibodies; anti-cyclin D1 (Cell Signaling, #2922), anti-phospho(Ser473)-AKT (Cell Signaling, #4060), anti-total AKT (Cell Signaling #9272), anti-Gli2 (Cho A. et al. (2008) Dev. Biol. 321:27-39), or anti-actin (Santa Cruz Biotechnology, sc-47778), followed by a 1 h incubation at RT with appropriate HRP-conjugated secondary antibodies. Antigen-antibody interactions were visualized with SuperSignal West Dura Extended Duration Substrate (Pierce).

SMO-D473H = target: T1, SMO-D473H (Homo sapiens, UniProt Q99835, D473H); assay: Gli-luciferase reporter assay in C3H10T½ cells transfected with SMO-D473H; assay type: cell-based; conditions: for activity against SMO-D473H, inhibition of Gli-luciferase activity: screen at 1 μM compound
T1 construct: expressed in transfected cells; host or cells: C3H10T½ cells (reporter assay)
T1 sequence (Q99835 28-787 D473H): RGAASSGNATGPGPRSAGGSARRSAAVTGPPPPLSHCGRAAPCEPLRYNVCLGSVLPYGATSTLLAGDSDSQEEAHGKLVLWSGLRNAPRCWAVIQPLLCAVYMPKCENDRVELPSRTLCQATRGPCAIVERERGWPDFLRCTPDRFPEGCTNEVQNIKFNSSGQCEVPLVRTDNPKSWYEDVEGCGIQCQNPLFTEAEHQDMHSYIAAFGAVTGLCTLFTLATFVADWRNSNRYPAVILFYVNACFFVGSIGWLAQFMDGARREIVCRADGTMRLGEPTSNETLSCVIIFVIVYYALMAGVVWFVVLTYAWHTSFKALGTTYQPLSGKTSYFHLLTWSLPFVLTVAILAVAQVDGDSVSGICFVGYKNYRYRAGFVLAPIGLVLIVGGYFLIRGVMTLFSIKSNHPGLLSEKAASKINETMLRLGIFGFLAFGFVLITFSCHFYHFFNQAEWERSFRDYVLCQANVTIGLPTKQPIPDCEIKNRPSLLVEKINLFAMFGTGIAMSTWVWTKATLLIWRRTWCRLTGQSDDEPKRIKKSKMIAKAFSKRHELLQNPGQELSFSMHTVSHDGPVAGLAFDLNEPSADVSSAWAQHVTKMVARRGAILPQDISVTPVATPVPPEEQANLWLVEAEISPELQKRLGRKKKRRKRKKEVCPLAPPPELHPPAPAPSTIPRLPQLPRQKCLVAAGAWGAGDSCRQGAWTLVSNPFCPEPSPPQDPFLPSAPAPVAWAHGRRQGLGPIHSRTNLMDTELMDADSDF
Procedure: For the PTCH1 inhibition experiments, cells were transfected with an additional 200 ng of DNA containing varying ratios of PTCH1 to eGFP expression constructs. For the NF-κB and SV40 reporter assays, Gli-BS was replaced with either pGL4.32 or pGL3-Promoter. Six hours later, cells were collected by trypsin treatment and each well was redistributed over four wells of a 12-well plate. The FBS content of the culture medium was reduced to 0.5% the following morning to induce formation of primary cilia, and small molecule Hh inhibitors were added at indicated concentrations. […] Values were divided by Renilla luciferase activities to normalize for transfection efficiency and are shown as the mean of three separate experiments±1 standard deviation.

[3] = Mouse pharmacokinetic study; assay type: in vivo; conditions: for pharmacokinetic properties in mice: oral
Procedure: Mouse pharmacokinetic studies. […] Briefly, 24 female CD-1 mice weighing 25 to 33 g at study initiation were given a single oral 100 mg kg−1 dose of either compound 4 or 5 as a suspension in 0.5% methylcellulose with 0.2% Tween-80 (MCT). Blood samples (n=3 mice per time point) were collected in tubes containing EDTA as an an anticoagulant by terminal cardiac puncture under isoflurane at the following time points: 5, 15 and 30 min; and 1, 3, 6, 9 and 24 h post-dose. Blood samples were centrifuged to collect plasma, which was stored at −80° C. until drug concentrations were quantified by LC/MS/MS.

[4] = test system: Smo localization to the primary cilium in S12 cells; assay: Smo immunostaining, ciliary localization in S12 cells; conditions: 16 h; for ciliary accumulation of Smo in the absence of Hh stimulation: no Shh; for effect on Smo localization compared with GDC-0449: absence or presence of Shh, 1 μM
human hepatocytes = assay: Metabolism by human hepatocytes; assay type: in vitro ADME; conditions: unpublished observation
[5] = test system: Smo localization to the primary cilium; conditions: literature reports; cited from earlier work
SMO-WT = target: T2, SMO-WT (Homo sapiens, UniProt Q99835); assay: Gli-luciferase reporter assay in C3H10T½ cells transfected with SMO-WT; assay type: cell-based
T2 construct: expressed in transfected cells; host or cells: C3H10T½ cells (reporter assay)
T2 sequence (Q99835 28-787): as the sequence (Q99835 28-787 D473H) above, with H446D counted along it

[6] = test system: SG274 allografts (Smo-D477G); assay: Tumor growth of subcutaneous SG274 MB allografts; assay type: in vivo, mouse; conditions: compound 5 100 mg kg−1 once daily, oral
Description: as §1

[7] = test system: Gli1 mRNA in SG274 tumors; assay: Gli1 mRNA levels by qRT-PCR in SG274 tumors; assay type: in vivo, mouse; conditions: compound 5 100 mg kg−1 once daily, collected 6 hours after last treatment
endogenous SMO = target: T3, endogenous SMO (Mus musculus, UniProt P56726); assay: Inhibition of endogenous SMO following stimulation by Hh ligand; assay type: cell-based; conditions: data not shown
T3 construct: endogenous in cells
T3 sequence (P56726 33-793): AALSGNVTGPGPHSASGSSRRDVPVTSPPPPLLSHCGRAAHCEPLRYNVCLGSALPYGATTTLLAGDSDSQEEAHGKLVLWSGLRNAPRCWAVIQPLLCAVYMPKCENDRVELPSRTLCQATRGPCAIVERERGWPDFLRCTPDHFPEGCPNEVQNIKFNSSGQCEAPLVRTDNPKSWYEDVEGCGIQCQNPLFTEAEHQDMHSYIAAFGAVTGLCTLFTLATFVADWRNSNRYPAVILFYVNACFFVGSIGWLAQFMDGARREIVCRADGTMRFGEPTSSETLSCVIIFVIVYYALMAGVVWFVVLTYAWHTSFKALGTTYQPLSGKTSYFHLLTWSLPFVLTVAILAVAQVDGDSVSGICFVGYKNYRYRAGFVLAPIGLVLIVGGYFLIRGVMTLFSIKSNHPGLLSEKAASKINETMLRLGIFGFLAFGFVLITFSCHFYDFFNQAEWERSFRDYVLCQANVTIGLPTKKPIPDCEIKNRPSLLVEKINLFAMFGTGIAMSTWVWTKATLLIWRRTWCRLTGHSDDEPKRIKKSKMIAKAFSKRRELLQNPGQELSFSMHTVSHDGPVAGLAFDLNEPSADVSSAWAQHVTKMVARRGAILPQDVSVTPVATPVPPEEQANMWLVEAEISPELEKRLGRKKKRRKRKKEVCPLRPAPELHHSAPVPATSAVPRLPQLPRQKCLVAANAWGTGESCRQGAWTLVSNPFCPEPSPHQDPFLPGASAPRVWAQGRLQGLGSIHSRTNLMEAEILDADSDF

[8] = 5 μM for cyclopamine, 1 μM for the others

**Q.** Which “tumor growth of control and resistant MB allograft models” value [1] does the source give for `CS(=O)(=O)N1CCN(Cc2cc3nc(-c4cccc5[nH]ncc45)nc(N4CCOCC4)c3s2)CC1` [GDC-0941] here?
**A.** Its value is “greatly reduced tumor growth”.

**Q.** And the “pAKT and pS6 levels in tumors” value [2]?
**A.** The value was “decreased pAKT and pS6 levels”.

**Q.** Which “activity against SMO-D473H, inhibition of Gli-luciferase activity” value (from here on “activity against SMO-D473H, inhibition”) (SMO-D473H) does the source give for `O=C(Nc1ccc(Cl)c(NC(=O)c2cccc(Cl)c2)c1)c1ccc(N2CCC(O)CC2)nc1` [Compound 4] here?
**A.** Its value is “improved potencies”.

**Q.** What about the “pharmacokinetic properties in mice” value [3] of the same compound?
**A.** Its value is “cleared much more rapidly from the blood stream than compound 5”.

**Q.** Which “ciliary accumulation of Smo in the absence of Hh stimulation” value (“ciliary accumulation of Smo” for short) [4, 8] does the source give for `CNC1CCC(N(Cc2cccc(-c3ccncc3)c2)C(=O)c2sc3ccccc3c2Cl)CC1` (stereo not drawn) [SAG] here?
**A.** Its value is “robust translocation of Smo to the primary odium”.

**Q.** With KAAD-cyclopamine as the compound, how does the “ciliary accumulation of Smo” value [4, 8] read?
**A.** The value was “partially induced ciliary translation”.

**Q.** Which “activity against SMO-D473H, inhibition” value (SMO-D473H) does the source give for `CC1=C2C[C@H]3[C@@H](CC=C4C[C@@H](O)CC[C@@]43C)[C@@H]2CC[C@]12O[C@@H]1C[C@H](C)CN[C@H]1[C@H]2C` [cyclopamine] here?
**A.** The value was “partially resistant; also recorded: neither cyclopamine nor SANT-1 can fully inhibit Smo-D473H”.

**Q.** What about the “ciliary accumulation of Smo” value [4, 8] of the same compound?
**A.** The value was “robust translocation of Smo to the primary odium”.

**Q.** For `CCOc1cc(C(=O)Nc2ccc(Cl)c(-c3nc4ccccc4[nH]3)c2)cc(OCC)c1OCC` [HhAntag], which “activity against SMO-D473H, inhibition” value (SMO-D473H) is on record?
**A.** The value was “essentially equipment against all SMO alleles”.

**Q.** And the “metabolism by human hepatocytes” value (human hepatocytes)?
**A.** Its value is “rapidly metabolized by human hepatocytes”.

**Q.** What about the “effect on Smo localization compared with GDC-0449” value [4] of the same compound?
**A.** The value was “very similar effects on Smo localization”.

**Q.** For `CS(=O)(=O)c1ccc(C(=O)Nc2ccc(Cl)c(NC(=O)c3ccccc3)c2)c(Cl)c1` [Compound 3], which “activity against SMO-D473H, inhibition” value (SMO-D473H) is on record?
**A.** The value was “measurable activity”.

**Q.** With `Cc1nn(-c2ccccc2)c(C)c1/C=N/N1CCN(Cc2ccccc2)CC1` [SANT-1] as the compound, how does the “activity against SMO-D473H, inhibition” value (SMO-D473H) read?
**A.** Its value is “partially resistant; also recorded: neither cyclopamine nor SANT-1 can fully inhibit Smo-D473H”.

**Q.** And the “Shh and agonist-induced translocation of Smo to the cilium” value [5]?
**A.** Its value is “prevented Shh and agonist-induced translocation of Smo”.

**Q.** And the “Hh-induced Smo translocation to the primary cilium” value ([4]; 200 ng/ml octyl-Shh, 5 μM for cyclopamine, 1 μM for the others)?
**A.** Its value is “prevented Hh-induced Smo translocation”.

**Q.** And the “ciliary accumulation of Smo” value [4, 8]?
**A.** The value was “did not promote ciliary enrichment”.

**Q.** With `C[C@@H]1CN(c2ccc(C(=O)Nc3ccc(Cl)c(NC(=O)c4cccc(Cl)c4)c3)cn2)C[C@H](C)N1` [Compound 5] as the compound, how does the “activity against wild type SMO, Gli-luciferase reporter” value (SMO-WT; SMO-WT overexpression in C3H10T½ cells) read?
**A.** Its value is “less potent against SMO-WT than GDC-0449”.

**Q.** And the IC50 (SMO-WT; SMO-WT transfected C3H10T½ cells, read-out: IC50, inhibition of GLI-luciferase reporter activity)?
**A.** The IC50 was 300 nM.

**Q.** And the IC50 (SMO-D473H; SMO-D473H transfected C3H10T½ cells, read-out: IC50, inhibition of Gli-luciferase reporter activity)?
**A.** The IC50 was 700 nM.

**Q.** What about the “inhibition of SMO-D473H, Gli-luciferase reporter dose response” value (SMO-D473H; dose response) of the same compound?
**A.** The value was “can inhibit the drug-resistant mutant”.

**Q.** And the “activity against SMO-D473H, inhibition” value (SMO-D473H)?
**A.** Its value is “improved potencies”.

**Q.** What about the half-life ([3]; female, CD-1, mouse, mice, single oral 100 mg kg−1 dose, plasma, read-out: terminal half-life (t1/2) (converted)) of the same compound?
**A.** Its half-life is roughly 22 h.

**Q.** And the “pharmacokinetic properties in mice” value [3]?
**A.** Its value is “good pharmacokinetic properties in mice”.

**Q.** And the “tumor growth of SG274 allografts” value [6]?
**A.** Its value is “not only stopped growing but even started to shrink”.

**Q.** And the “Gli1 mRNA levels in SG274 tumors” value [7]?
**A.** Its value is “downregulation in Gli1 mRNA levels”.

**Q.** And the “less compound sufficient to inhibit endogenous SMO than in SMO overexpression assay” value (endogenous SMO)?
**A.** The value was “approximately 10 fold”.

**Q.** And the “effect on Smo localization compared with GDC-0449” value [4]?
**A.** Its value is “very similar effects on Smo localization”.

Reference: US9910050B2, “Mutant smoothened and methods of using the same” (Curis, Inc., priority 2009, dated 2018)
